From ChEMBL document CHEMBL4270532, “Molecular dynamics simulations of viral neuraminidase inhibitors with the human neuraminidase enzymes: Insights into isoenzyme selectivity” (Bioorg Med Chem, 2018)
pIC50: −log10 of the molar value.

Assays:
Sialidase-4 [1] = molecular target: T1, Sialidase-4 (Homo sapiens, UniProt Q8WWR8); assay: Inhibition of MBP-fused recombinant human neuraminidase 4 expressed in Escherichia coli using 4MU-NANA as substrate preincubated for 15 mins followed by substrate addition measured every 1 min for 30 mins by fluorescence analysis
T1 sequence (Q8WWR8 whole entry): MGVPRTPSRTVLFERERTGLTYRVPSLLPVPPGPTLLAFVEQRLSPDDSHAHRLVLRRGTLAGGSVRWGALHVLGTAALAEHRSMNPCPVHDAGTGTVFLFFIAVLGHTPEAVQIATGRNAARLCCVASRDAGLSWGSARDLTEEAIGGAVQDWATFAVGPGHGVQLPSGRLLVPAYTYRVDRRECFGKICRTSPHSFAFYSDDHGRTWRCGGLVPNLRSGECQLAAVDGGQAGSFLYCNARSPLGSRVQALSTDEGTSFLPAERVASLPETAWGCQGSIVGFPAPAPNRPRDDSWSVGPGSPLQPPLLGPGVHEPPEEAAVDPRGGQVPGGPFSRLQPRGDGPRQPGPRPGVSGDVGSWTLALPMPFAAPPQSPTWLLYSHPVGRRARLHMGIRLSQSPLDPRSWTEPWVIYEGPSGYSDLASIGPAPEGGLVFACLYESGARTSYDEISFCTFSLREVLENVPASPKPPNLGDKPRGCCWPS

Sialidase-3 [2] = molecular target: T2, Sialidase-3 (Homo sapiens, UniProt Q9UQ49); assay: Inhibition of MBP-fused recombinant human neuraminidase 3 expressed in Escherichia coli using 4MU-NANA as substrate preincubated for 15 mins followed by substrate addition measured after 30 mins by fluorescence analysis
T2 sequence (Q9UQ49 whole entry): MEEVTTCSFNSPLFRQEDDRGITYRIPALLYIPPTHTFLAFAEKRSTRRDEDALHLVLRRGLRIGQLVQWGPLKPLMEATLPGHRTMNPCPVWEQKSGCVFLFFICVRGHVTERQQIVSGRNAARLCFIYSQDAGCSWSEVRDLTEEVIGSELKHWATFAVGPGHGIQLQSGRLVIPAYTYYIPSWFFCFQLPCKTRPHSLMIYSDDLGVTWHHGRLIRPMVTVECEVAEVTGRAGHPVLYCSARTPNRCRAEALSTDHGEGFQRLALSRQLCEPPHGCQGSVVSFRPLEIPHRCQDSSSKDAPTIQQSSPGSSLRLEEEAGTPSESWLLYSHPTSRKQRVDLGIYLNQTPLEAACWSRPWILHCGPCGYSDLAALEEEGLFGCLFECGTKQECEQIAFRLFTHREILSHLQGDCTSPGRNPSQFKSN

Sialidase-4 [3] = molecular target: T1, Sialidase-4; assay: Inhibition of MBP-fused recombinant human neuraminidase 4 expressed in Escherichia coli using 4MU-NANA as substrate preincubated for 15 mins followed by substrate addition measured after 30 mins by fluorescence analysis
Sialidase-3 [4] = molecular target: T2, Sialidase-3; assay: Inhibition of MBP-fused recombinant human neuraminidase 3 expressed in Escherichia coli using 4MU-NANA as substrate preincubated for 15 mins followed by substrate addition measured every 1 min for 30 mins by fluorescence analysis
Sialidase-1 [5] = molecular target: T3, Sialidase-1 (Homo sapiens, UniProt Q99519); assay: Inhibition of recombinant His6-tagged human neuraminidase 1 expressed in HEK293 cells using 4MU-NANA as substrate preincubated for 15 mins followed by substrate addition measured after 30 mins by fluorescence analysis
Sialidase-1 [6] = molecular target: T3, Sialidase-1; assay: Inhibition of recombinant His6-tagged human neuraminidase 1 expressed in HEK293 cells using 4MU-NANA as substrate preincubated for 15 mins followed by substrate addition measured every 1 min for 30 mins by fluorescence analysis

Ki (Sialidase-4 [1])	pIC50 (Sialidase-3 [2])	pIC50 (Sialidase-4 [3])	Ki (Sialidase-3 [4])	pIC50 (Sialidase-1 [5])	Ki (Sialidase-1 [6])	SMILES
Not Active	< 3.30	< 3.30	Not Active	< 3.30	Not Active	CCOC(=O)C1=C[C@@H](OC(CC)CC)[C@H](NC(C)=O)[C@@H](N)C1 [OSELTAMIVIR]
					Not Active	CC(=O)N[C@H]1[C@H]([C@H](O)[C@H](O)CO)OC(C(=O)O)=C[C@@H]1NC(=N)N [ZANAMIVIR]
Not Active	< 3.30	< 3.30	Not Active	< 3.30	Not Active	CC(=O)N[C@H]1[C@H]([C@H](O)[C@H](O)CO)OC(O)(C(=O)O)C[C@@H]1O (some centres undefined)
Not Active	< 3.30	< 3.30	Not Active	< 3.30	Not Active	CCC(CC)[C@H](NC(C)=O)[C@@H]1[C@H](O)[C@@H](C(=O)O)C[C@H]1NC(=N)N [PERAMIVIR ANHYDROUS]
